Experimental data published in patent US9107926B2, “Mutant selectivity and combinations of a phosphoinositide 3-kinase inhibitor compound and chemotherapeutic agents for the treatment of cancer” (Genentech, Inc., priority 2012, dated 2015).

Tests used:
[1] = test system: MCF-7 neo/HER2 breast cancer tumor xenografts; test: In vivo mouse tumor xenograft efficacy; set-up: species or system mice
Method: (§1) Xenografts were initiated with cancer cells. […] Volume was calculated using the formula: […]

cancer cell lines = test: cell proliferation assays across cancer cell lines (FIGS. 1-3, 12); format: cell-based; settings: EC50, cell proliferation assays
Source text: EC50 values were established for the experiments.

PI3K alpha H1047R mutant = PI3K alpha H1047R mutant (Homo sapiens, UniProt P42336, H1047R); settings: relative to PI3K alpha; Folkes et al (2008); cited from earlier work
Chain of PI3K alpha H1047R mutant (P42336 whole entry H1047R): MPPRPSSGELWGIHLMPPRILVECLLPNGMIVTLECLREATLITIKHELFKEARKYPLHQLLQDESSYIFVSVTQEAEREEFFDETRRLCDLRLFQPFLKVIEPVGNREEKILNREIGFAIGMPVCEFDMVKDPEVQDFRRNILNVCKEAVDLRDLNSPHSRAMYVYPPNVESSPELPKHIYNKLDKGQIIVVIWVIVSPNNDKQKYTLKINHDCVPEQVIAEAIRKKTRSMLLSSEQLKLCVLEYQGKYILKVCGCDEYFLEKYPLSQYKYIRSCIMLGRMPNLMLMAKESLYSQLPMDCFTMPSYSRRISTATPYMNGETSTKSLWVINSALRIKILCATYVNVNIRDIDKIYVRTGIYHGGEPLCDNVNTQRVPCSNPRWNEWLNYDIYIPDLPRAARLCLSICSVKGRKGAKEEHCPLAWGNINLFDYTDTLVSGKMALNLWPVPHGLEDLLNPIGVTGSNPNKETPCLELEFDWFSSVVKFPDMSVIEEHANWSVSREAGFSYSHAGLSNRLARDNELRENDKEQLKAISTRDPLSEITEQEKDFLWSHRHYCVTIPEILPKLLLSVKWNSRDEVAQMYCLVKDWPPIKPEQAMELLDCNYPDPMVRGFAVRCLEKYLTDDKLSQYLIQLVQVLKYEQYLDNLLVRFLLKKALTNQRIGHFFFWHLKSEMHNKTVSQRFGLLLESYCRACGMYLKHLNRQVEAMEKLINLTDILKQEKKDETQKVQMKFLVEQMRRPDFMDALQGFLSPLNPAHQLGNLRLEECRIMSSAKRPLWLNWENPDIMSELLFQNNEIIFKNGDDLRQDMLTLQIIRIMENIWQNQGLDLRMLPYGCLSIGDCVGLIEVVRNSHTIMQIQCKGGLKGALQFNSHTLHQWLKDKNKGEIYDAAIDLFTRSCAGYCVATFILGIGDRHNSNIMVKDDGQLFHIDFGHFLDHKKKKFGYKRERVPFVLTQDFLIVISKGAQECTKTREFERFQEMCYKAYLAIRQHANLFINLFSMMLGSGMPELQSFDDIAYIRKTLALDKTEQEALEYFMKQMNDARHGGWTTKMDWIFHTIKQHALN
Chain of PI3K alpha H1047R mutant (P27986 whole entry partner): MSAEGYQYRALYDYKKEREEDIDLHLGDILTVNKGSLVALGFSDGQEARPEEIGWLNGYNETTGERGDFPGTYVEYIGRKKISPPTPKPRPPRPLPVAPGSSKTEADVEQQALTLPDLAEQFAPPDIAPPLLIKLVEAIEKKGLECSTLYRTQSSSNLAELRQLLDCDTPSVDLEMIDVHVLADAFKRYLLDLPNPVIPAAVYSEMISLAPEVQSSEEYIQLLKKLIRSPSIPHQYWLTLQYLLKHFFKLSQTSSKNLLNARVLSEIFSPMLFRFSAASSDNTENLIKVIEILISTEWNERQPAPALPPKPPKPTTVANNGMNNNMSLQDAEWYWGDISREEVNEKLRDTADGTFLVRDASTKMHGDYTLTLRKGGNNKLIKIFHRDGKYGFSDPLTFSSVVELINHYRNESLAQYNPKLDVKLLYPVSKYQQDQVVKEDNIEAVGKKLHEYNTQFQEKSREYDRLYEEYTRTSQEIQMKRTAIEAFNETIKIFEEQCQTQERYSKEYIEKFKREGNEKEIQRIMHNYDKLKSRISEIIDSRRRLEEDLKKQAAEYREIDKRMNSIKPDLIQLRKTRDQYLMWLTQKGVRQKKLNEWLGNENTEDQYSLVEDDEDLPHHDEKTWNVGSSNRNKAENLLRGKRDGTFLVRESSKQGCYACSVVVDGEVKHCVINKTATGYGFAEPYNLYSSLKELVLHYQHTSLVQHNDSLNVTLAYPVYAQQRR

PI3K alpha E545K mutant = PI3K alpha E545K mutant (Homo sapiens, UniProt P42336, E545K); settings: relative to PI3K alpha; Folkes et al (2008); cited from earlier work
Chain of PI3K alpha E545K mutant (P42336 whole entry E545K): as the sequence (P42336 whole entry H1047R) above, with E545K, R1047H counted along it
Chain of PI3K alpha E545K mutant (P27986 whole entry partner): as the sequence (P27986 whole entry partner) above

[2] = test system: HCC1954.x1 breast tumor xenografts; test: In vivo mouse tumor xenograft efficacy; set-up: species or system mice; settings: 150 mg/kg; QD x 21; PO
Method: The term uL means microliter.
as §1

[3] = test system: Endocrine-resistant MCF7-ARO cells; test: 4 day CellTiter-Glo assay in endocrine resistant cells; format: cell-based, human; settings: FIG. 40A
Source text: Endocrine-resistant MCF7-ARO cells were obtained by letrozole dose escalation over about 4 months.

MCF7-ARO cells = test: modulation of PI3K pathway and ER pathway markers and apoptosis induction; format: cell-based, human; settings: Twenty-four hour treatment
Source text: Aromatase-expressing MCF7 cells convert androstenedione to estrogen in culture.

CC(=O)O[C@@]12CO[C@@H]1C[C@H](O)[C@@]1(C)C(=O)[C@H](O)C3=C(C)[C@@H](OC(=O)[C@H](O)[C@@H](NC(=O)OC(C)(C)C)c4ccccc4)C[C@@](O)([C@@H](OC(=O)c4ccccc4)[C@H]21)C3(C)C [Docetaxel, (2R,3S)—N-carboxy-3-phenylisoserine, N-tert-butyl ester, 13-ester with 5,20-epoxy-1,2,4,7,10,13-hexahydroxytax-11-en-9-one 4-acetate 2-benzoate, trihydrate, reference compound]
% TGI@ day 21 ([1]; QW, 7.5 mg/kg): 69%

CS(=O)(=O)N1CCN(Cc2cc3nc(-c4cccc5[nH]ncc45)nc(N4CCOCC4)c3s2)CC1 [GDC-0941, 4-(2-(1H-indazol-4-yl)-6-((4-(methylsulfonyl)piperazin-1-yl)methyl)thieno[3,2-d]pyrimidin-4-yl)morpholine, reference compound]
sensitivity of cancer cell lines with HER2 amplification versus those without HER2 amplification (cancer cell lines): 9 times | PI3K alpha H1047R mutant (PI3K alpha H1047R mutant): 1x | % TGI@ day 21 ([1]; QD, 150 mg/kg): 80% | PI3K alpha E545K mutant (PI3K alpha E545K mutant): 1x | % TGI@ day 21 [2]: 90%

C=C1C[C@@H]2[C@H](CC[C@]3(C)C(=O)CC[C@@H]23)[C@@]2(C)C=CC(=O)C=C12 [exemestane]
resistance of endocrine-resistant cells [3]: resistant

C[C@]12CC[C@@H]3c4ccc(O)cc4C[C@@H](CCCCCCCCC[S+]([O-])CCCC(F)(F)C(F)(F)F)[C@H]3[C@@H]1CC[C@@H]2O (some centres unmarked) [fulvestrant, (7a,1713)-7-{9-[(4,4,5,5,5-pentafluoropentyl)sulfinyl]nonyl}estra-1,3,5(10)-triene-3,17-diol]
resistance of endocrine-resistant cells [3]: resistant

N#Cc1ccc(C(c2ccc(C#N)cc2)n2cncn2)cc1 [letrozole, 4,4′-((1H-1,2,4-triazol-1-yl)methylene)dibenzonitrile]
PI3K and ER pathway markers (MCF7-ARO cells): increases HER2 and pAkt, but decreases pmTOR and pp 70S6K | resistance of endocrine-resistant cells [3]: resistant

CC/C(=C(\c1ccccc1)c1ccc(OCCN(C)C)cc1)c1ccccc1 [tamoxifen, (Z)-2-[4-(1,2-diphenylbut-1-enyl)phenoxy]-N,N-dimethylethanamine]
resistance of endocrine-resistant cells [3]: resistant
